Measurements: patent US20150320738A1, “BERBERINE-CONTAINING PHARMACEUTICAL COMPOSITION FOR INHIBITING CANCER STEM CELL GROWTH OR CARCINOMA METASTASIS AND APPLICATION THEREOF” (National Taiwan Normal University, priority 2011, published 2015)
pIC50: −log10 of the molar value.

Experiments:
Assay type in all cases: cell-based
A549 cell line = test: MTT cell proliferation assay, A549; conditions: Homo sapiens, 48 hours, read-out: half maximal inhibitory concentration (IC50)
Procedure: (§1) NSCLC cell lines A549, NCI-H460, NCI-H520 and normal lung cell line MRC5 were obtained from Bioresource Collection and Research Center (BCRC, Taiwan). A549 cell line was cultured with F12K medium (21127, GIBCO, Carlsbad, U.S.A.). Both NCI-H460 and NCI-H520 cell lines were cultured with RPMI1640 medium (23400, GIBCO, Carlsbad, U.S.A.). MRC5 cell line was culture with MEM medium (41500, GIBCO, Carlsbad, U.S.A.). All media mentioned above contained 10% FBS (10437, GIBCO, Carlsbad, U.S.A.). All cultures were maintained in an incubator (Thermo forma 370, Waltham, U.S.A.) with 5% CO2 at 37° C. Cells were seeded at 1×10^4 cells per well in a 24-well plate for 16 hours. After that, a sample such as the berberine solutions with different concentrations and the extract of C. chinensis was added into 24-well plate directly, and cultured at 37° C. for 24, 48, and 72 hours, respectively. Thiazolyl blue tetrazolium bromide (MTT, m5655, Sigma, St. Louis, U.S.A.) solution was prepared in a concentration of 5.5 mg/ml with phosphate buffered saline (PBS) filtered by 0.22 μm membrane. The MTT solution (50 μl) was added to the wells of 24-well plates with A549, NCI-H460, NCI-H520, and MRC5 cell lines cultured after 24, 48, and 72 hours. The plates were incubated at 37° C. for 2 hours and then moved out. The media of the wells were removed. […]

NCI-H460 cell line = test: MTT cell proliferation assay, NCI-H460; conditions: Homo sapiens, 48 hours, read-out: half maximal inhibitory concentration (IC50)
Procedure: as §1

NCI-H520 cell line = test: MTT cell proliferation assay, NCI-H520; conditions: Homo sapiens, 48 hours, read-out: half maximal inhibitory concentration (IC50)
Procedure: as §1

A549 cells = test: Side population analysis (Hoechst33342, flow cytometry); conditions: A549, dose of IC50, 48 hours
Procedure: A549 cells were seeded in the number of about 3×10^5 in 10 cm dish to give adequate number of cells for analysis. The cells were treated with the extract of C. chinensis and the berberine solution in the dose of IC50 for 48 hours. Then, the treated cells were harvested by typsinization and centrifugation. The harvested cells were re-suspended in the number of 1×10^6 cells/ml in culture medium containing 2% FBS. Hoechst33342 dye (5 μg/ml, Invitrogen, Carlsbad, U.S.A.) was added with or without reserpine (50 μM, Sigma, St. Louis, U.S.A.) as a blocking reagent. The cells were further incubated at 37° C. for 2 hours under frequently gentle vortex to ensure uniform staining, and then washed cells with PBS. PI staining (20 ng/ml) was used to determine the live/dead cells. In order to set up the fluorescence compensation, single staining and non-staining groups were prepared. The cell samples were filtered with nylon mesh (35 μm) to prevent cell aggregation. PI-positive dead cells were primary excluded to avoid false positive signals. Then, the Hoechst blue and red dot plotting was used to determine the side population. A gate of a side population was defined by the diminishing region of two samples groups, i.e. with or without reserpine. The percentages of the side population were further analyzed by Flowjo software (TreeStar, Ashland, U.S.A.).

`COc1ccc2cc3[n+](cc2c1OC)CCc1cc2c(cc1-3)OCO2` [berberine solution, berberine chloride] was tested, and the pIC50 (A549 cell line) was about 5.15, the pIC50 (NCI-H460 cell line) was about 4.40 and the pIC50 (NCI-H520 cell line) was about 4.70. The “side population (SP)” value (A549 cells) was “considerably diminished”.
